Data set [1] relates to HepG2. As to the kind of experiment: Antiproliferative activity against human HepG2 cells. The class given is functional, cell-based.
Data set [2] deals with KB. In words: Antiproliferative activity against human KB cells. The class given is functional, cell-based.
In data set [3] the test system is HT-29. In words: Antiproliferative activity against human HT-29 cells assessed as reduction in cell viability. The class given is functional, cell-based.
The test system of data set [4] is HCT-116. In words: Antiproliferative activity against human HCT-116 cells assessed as reduction in cell viability. The class given is functional, cell-based. The settings on record: Homo sapiens, HCT-116.
Data set [5] is described as follows: Antiproliferative activity against human MRC5 cells assessed as reduction in cell viability. The class given is toxicity, cell-based.
Data set [6] relates to MDA-MB-231. In words: Antiproliferative activity against human MDA-MB-231 cells assessed as reduction in cell viability. The class given is functional, cell-based.
Data set [7] concerns HCT-116. In words: Antiproliferative activity against human HCT-116 cells. The class given is functional, cell-based.
Data set [8] relates to A549. As to the kind of experiment: Antiproliferative activity against human A549 cells. The class given is functional, cell-based.
In data set [9] the test system is MV4-11. In words: Antiproliferative activity against human MV4-11 cells. The class given is functional, cell-based.
For data set [10], the system named is MDA-MB-231. As to the kind of experiment: Antiproliferative activity against human MDA-MB-231 cells. The class given is functional, cell-based. The settings on record: Homo sapiens, MDA-MB-231.
Data set [11] concerns COLO 205. In words: Antiproliferative activity against human COLO 205 cells. The class given is functional, cell-based.
In data set [12] the test system is K562. In words: Antiproliferative activity against human K562 cells. The class given is functional, cell-based.
Data set [13] has as its system A-431. In words: Antiproliferative activity against human A-431 cells. The class given is functional, cell-based.
For data set [14], the system named is HEK293. In words: Antiproliferative activity against human HEK293 cells. The class given is functional, cell-based.
Data set [15] relates to PC-3. As to the kind of experiment: Antiproliferative activity against human PC-3 cells. The class given is functional, cell-based.
The test system of data set [16] is HL-60. In words: Antiproliferative activity against human HL-60 cells assessed as reduction in cell viability measured after 72 hrs. As to conditions: HL-60, time 72 hrs. The class given is functional, cell-based.
Data set [17] relates to P388/ADR. As to the kind of experiment: Antiproliferative activity against mouse P388/ADR cells assessed as reduction in cell viability measured after 72 hrs. The class given is functional, cell-based. As to conditions: time 72 hrs.
Data set [18] in a line: Antiproliferative activity against mouse P388 cells assessed as reduction in cell viability measured after 72 hrs. The class given is functional, cell-based. As to conditions: time 72 hrs.

Regarding `CC1=CN([C@H]2C[C@H](n3cc(-c4cccc(NC(=O)CCC(=O)O[C@@H]5O[C@@H]6O[C@@]7(C)CC[C@H]8[C@H](C)CC[C@@H]([C@H]5C)[C@@]68OO7)c4)nn3)[C@@H](CO)O2)C(C)NC1=O` (some centres not stated), the IC50 in data set [1] and in [2] was 47600 nM throughout.
Regarding `Cc1c(C)c2cccc(OCc3cn(CCO[C@@H]4O[C@@H]5O[C@@]6(C)CC[C@H]7[C@H](C)CC[C@@H]([C@H]4C)[C@@]57OO6)nn3)c2oc1=O`, the IC50 in [3], in data set [4], in data set [5] and in data set [6] was 430 nM each time.
As to `C[C@H]1[C@@H](OC(=O)CCC(=O)NCCCNc2c3c4ccccc4nc-3n(C)c3ccccc23)O[C@@H]2O[C@@]3(C)CC[C@H]4[C@H](C)CC[C@@H]1[C@@]24OO3`, the IC50 in data set [7], in data set [8] and in data set [9] was 72 nM in each case.
As for `Cc1cn([C@H]2C[C@H](n3cc(CNC(=O)CCCC(=O)O[C@@H]4O[C@@H]5O[C@@]6(C)CC[C@H]7[C@H](C)CC[C@@H]([C@H]4C)[C@@]57OO6)nn3)[C@@H](CO)O2)c(=O)[nH]c1=O`, the IC50 in [1] and in [2] was 47600 nM each time.
For the compound `C[C@H]1[C@@H](OC(=O)CCC(=O)NCC(C)(C)CNc2c3c4ccccc4nc-3n(C)c3ccc(Cl)cc23)O[C@@H]2O[C@@]3(C)CC[C@H]4[C@H](C)CC[C@@H]1[C@@]24OO3`, the IC50 in data set [7], in data set [8] and in data set [9] was 72 nM in each case.
In the case of `C[C@H]1[C@@H](OCCn2cc(COc3ccc(C=O)c(O)c3)nn2)O[C@@H]2O[C@@]3(C)CC[C@H]4[C@H](C)CC[C@@H]1[C@@]24OO3`, the IC50 in data set [10], in data set [11], in data set [12], in data set [13], in data set [8] and in [14] was 18000 nM each time. The same compound displayed an IC50 in [15] of 18000 nM.
Take `COC(=O)c1ccc2c(c1)c(NCCCNC(=O)CCC(=O)O[C@H]1O[C@@H]3O[C@@]4(C)CC[C@H]5[C@H](C)CC[C@@H]([C@H]1C)[C@@]35OO4)c1c3ccccc3nc-1n2C`: the IC50 in data set [7], in data set [8] and in data set [9] was 72 nM throughout.
Regarding `Cc1cn([C@H]2C[C@H](n3cc(COC(=O)CCCC(=O)O[C@@H]4O[C@@H]5O[C@@]6(C)CC[C@H]7[C@H](C)CC[C@@H]([C@H]4C)[C@@]57OO6)nn3)[C@@H](CO)O2)c(=O)[nH]c1=O`, the IC50 in data set [1] and in data set [2] was 16500 nM throughout.
For the compound `Cc1cc(=O)oc2c(OCc3cn(CCCO[C@@H]4O[C@@H]5O[C@@]6(C)CC[C@H]7[C@H](C)CC[C@@H]([C@H]4C)[C@@]57OO6)nn3)cccc12`, the IC50 in [3], in [4], in data set [5] and in data set [6] was 430 nM throughout.
For the compound `C[C@H]1[C@@H](OC(=O)CCC(=O)NCC(C)(C)CNc2c3c4ccccc4nc-3n(C)c3ccc(Br)cc23)O[C@@H]2O[C@@]3(C)CC[C@H]4[C@H](C)CC[C@@H]1[C@@]24OO3`, the IC50 in [7], in data set [8] and in [9] was 72 nM in each case.
`C[C@H]1[C@H](OCCn2cc(COc3cccc4c(C(F)(F)F)cc(=O)oc34)nn2)O[C@@H]2O[C@@]3(C)CC[C@H]4[C@H](C)CC[C@@H]1[C@@]24OO3`: the IC50 in data set [3], in data set [4], in data set [5] and in data set [6] was 430 nM in each case.
For the compound `CC(=O)c1ccccc1-n1cc(CO[C@H]2O[C@@H]3O[C@]4(C)OO[C@]35[C@@H](CC[C@@H](C)[C@@H]5C[C@H]4O)[C@H]2C)nn1`, the IC50 in [10], in [11], in data set [12], in data set [13], in data set [8] and in data set [14] was 25300 nM throughout. This compound gave an IC50 in data set [15] of 25300 nM.
As to `C[C@H]1[C@H](OCCCn2cc(COc3cccc4c(C(F)(F)F)cc(=O)oc34)nn2)O[C@@H]2O[C@@]3(C)CC[C@H]4[C@H](C)CC[C@@H]1[C@@]24OO3`, the IC50 in data set [3], in [4], in data set [5] and in data set [6] was 430 nM throughout.
As for `CCN1CCN(C(=O)CCC(=O)O[C@@H]2O[C@@H]3O[C@]4(C)CC[C@H]5[C@H](C)CC[C@@H]([C@H]2C)[C@@]35OO4)CC1`, the GI50 in [16], in [17] and in [18] was 231 nM in each case.
For `Cc1cn([C@H]2C[C@H](n3cc(CNC(=O)CC(C)CC(=O)O[C@@H]4O[C@@H]5O[C@@]6(C)CC[C@H]7[C@H](C)CC[C@@H]([C@H]4C)[C@@]57OO6)nn3)[C@@H](CO)O2)c(=O)[nH]c1=O` (some centres not stated), the IC50 in data set [1] and in data set [2] was 47600 nM throughout.
On to `CCOC(=O)c1cc2cccc(OCc3cn(CCO[C@@H]4O[C@@H]5O[C@@]6(C)CC[C@H]7[C@H](C)CC[C@@H]([C@H]4C)[C@@]57OO6)nn3)c2oc1=O`, for which the IC50 in [3], in [4], in data set [5] and in data set [6] was 430 nM in each case.
With `C[C@H]1[C@@H](OC(=O)CCC(=O)NCCCNc2c3ccccc3nc3c2[nH]c2ccccc23)O[C@@H]2O[C@@]3(C)CC[C@H]4[C@H](C)CC[C@@H]1[C@@]24OO3`, the IC50 in [7], in data set [8] and in data set [9] was 286 nM each time.
On to `CC(C)N1CCN(C(=O)CCC(=O)O[C@@H]2O[C@@H]3O[C@]4(C)CC[C@H]5[C@H](C)CC[C@@H]([C@H]2C)[C@@]35OO4)CC1`, for which the GI50 in data set [16], in data set [17] and in data set [18] was 231 nM in each case.
Consider `C[C@H]1[C@@H](OCc2cn(-c3ccc(C#N)cc3)nn2)O[C@@H]2O[C@]3(C)OO[C@]24[C@H]1CC[C@@H](C)[C@@H]4C[C@H]3O`, for which the IC50 in data set [10], in data set [11], in data set [12], in data set [13], in [8] and in data set [14] was 25300 nM in each case. In [15], this compound returned an IC50 of 25300 nM.
For the compound `C[C@H]1[C@@H](OCCn2cc(COc3cccc(O)c3)nn2)O[C@@H]2O[C@@]3(C)CC[C@H]4[C@H](C)CC[C@@H]1[C@@]24OO3`, the IC50 in [10], in data set [11], in [12], in data set [13], in data set [8] and in data set [14] was 18000 nM each time. The compound also displayed an IC50 in [15] of 18000 nM.
For the compound `C[C@H]1[C@H](OC(=O)CCC(=O)N2CCN(c3ccccc3)CC2)O[C@@H]2O[C@]3(C)CC[C@H]4[C@H](C)CC[C@@H]1[C@@]24OO3`, the concentration for 50% growth inhibition (GI50) in data set [16], in [17] and in data set [18] was 231 nM each time.
Regarding `CC(=O)c1cccc(-n2cc(CO[C@H]3O[C@@H]4O[C@]5(C)OO[C@]46[C@@H](CC[C@@H](C)[C@@H]6C[C@H]5O)[C@H]3C)nn2)c1`, the IC50 in [10], in data set [11], in data set [12], in data set [13], in [8] and in data set [14] was 25300 nM throughout. For the same compound, the IC50 in [15] was 25300 nM.
Take `Cc1c(Cl)c(=O)oc2c(OCc3cn(CCO[C@@H]4O[C@@H]5O[C@@]6(C)CC[C@H]7[C@H](C)CC[C@@H]([C@H]4C)[C@@]57OO6)nn3)cccc12`: the IC50 in data set [3], in data set [4], in data set [5] and in [6] was 430 nM throughout.
On to `C[C@H]1[C@H](OC(=O)CCC(=O)N2CCN(C)CC2)O[C@@H]2O[C@]3(C)CC[C@H]4[C@H](C)CC[C@@H]1[C@@]24OO3`, for which the GI50 in data set [16], in [17] and in data set [18] was 231 nM throughout.
Consider `C[C@H]1[C@@H](OCC(O)Cn2cc(-c3cccc(N)c3)nn2)O[C@@H]2O[C@@]3(C)CC[C@H]4[C@H](C)CC[C@@H]1[C@@]24OO3` (some centres not stated), for which the figures for the IC50 in [1] and in data set [2] were 32900 nM and 12500 nM, respectively.
`Cc1cn(C2C[C@H](n3cc(CNC(=O)C(C)CC(=O)O[C@@H]4O[C@@H]5O[C@@]6(C)CC[C@H]7[C@H](C)CC[C@@H]([C@H]4C)[C@@]57OO6)nn3)[C@@H](CO)O2)c(=O)[nH]c1=O` (single isomer, unassigned): the IC50 in data set [1] and in [2] was 47600 nM in each case.
As to `Cc1cn(C2C[C@H](n3cc(COC(=O)CCC(=O)O[C@@H]4O[C@@H]5O[C@@]6(C)CC[C@H]7[C@H](C)CC[C@@H]([C@H]4C)[C@@]57OO6)nn3)[C@@H](CO)O2)c(=O)[nH]c1=O` (single isomer, unassigned), the IC50 in data set [1] and in [2] was 16500 nM in each case.
As for `COc1cccc2c1C(=O)c1c(O)c3c(c(O)c1C2=O)C[C@@](O)(C(=O)CO)C[C@@H]3O[C@H]1C[C@H](N)[C@H](O)[C@H](C)O1` [DOXORUBICIN], the IC50 in data set [10] was 1430 nM; in data set [3], 50 nM; in data set [11] it was 1430 nM; in data set [12] it was 1430 nM; in data set [13], 1430 nM; in [14], 1430 nM. For the same compound, the values for the IC50 in [4], in [15] and in data set [6] were 50 nM, 1430 nM and 50 nM, respectively. Further, the GI50 stood at 8.7 nM in data set [16], 3730 nM in data set [17] and 8.7 nM in [18].

For the origin of these results see ChEMBL document CHEMBL5244230, “Artemisinin-derived hybrids and their anticancer activity” (Eur J Med Chem, 2020).
